Assay [1] concerns the target T1, integrin αv/βIII receptor (Homo sapiens, UniProt P05106+P06756).
T1 construct: purchased Bachem
Briefly: Selection of 25-member split-and-mix library on immobilised integrin αVβ3, PCR, cloning and sequencing (Example 9). It counts as binding. The note with it: after selection; 18 successful sequences. The protocol: Maxisorp ELISA wells (NUNC A/S, Denmark) were coated with each 100 μL 2 μg/mL integrin αVβ3 (Bachem) in PBS buffer [2.8 mM NaH2PO4, 7.2 mM Na2HPO4, 0.15 M NaCl, pH 7.2] overnight at 4° C. Then the integrin solution was substituted for 200 μl blocking buffer [TBS, 0.05% Tween 20 (Sigma P-9416), 1% bovine serum albumin (Sigma A-7030), 1 mM MnCl2] which was left on for 1 hour at room temperature. Then the wells were washed 2 times with 250 μl blocking buffer and 5 μl of the encoded library was added to the wells after diluting it 20 times with blocking buffer. Following 2 hours incubation at room temperature the wells were washed with 20×250 μl blocking buffer.
After the final wash the wells were cleared of wash buffer and subsequently inverted and exposed to UV light at 300-350 nm for 30 seconds using a trans-illuminator set at 70% power.
100 μl blocking buffer without Tween-20 was immediately added to each well, the wells were shaken for 30 seconds, and the solutions containing eluted templates were removed for PCR analysis. […]
Individual E. coli clones were picked and transferred to PCR wells containing 50 μl water. Colonies were incubated at 94° C. for 5 minutes and 20 μl was used in a 25 μl PCR reaction with 5 pmol of each TOPO primer M13 forward & M13 reverse (AH365/AH366) and Ready-To-Go PCR beads (Amersham) using PCR program EKO50: 94° C. […]

The target in another assay is αv/βIII receptor (Homo sapiens, UniProt P05106+P06756). Conditions: cited from earlier work.
Chain of αv/βIII receptor (P06756 31-889 limits assumed): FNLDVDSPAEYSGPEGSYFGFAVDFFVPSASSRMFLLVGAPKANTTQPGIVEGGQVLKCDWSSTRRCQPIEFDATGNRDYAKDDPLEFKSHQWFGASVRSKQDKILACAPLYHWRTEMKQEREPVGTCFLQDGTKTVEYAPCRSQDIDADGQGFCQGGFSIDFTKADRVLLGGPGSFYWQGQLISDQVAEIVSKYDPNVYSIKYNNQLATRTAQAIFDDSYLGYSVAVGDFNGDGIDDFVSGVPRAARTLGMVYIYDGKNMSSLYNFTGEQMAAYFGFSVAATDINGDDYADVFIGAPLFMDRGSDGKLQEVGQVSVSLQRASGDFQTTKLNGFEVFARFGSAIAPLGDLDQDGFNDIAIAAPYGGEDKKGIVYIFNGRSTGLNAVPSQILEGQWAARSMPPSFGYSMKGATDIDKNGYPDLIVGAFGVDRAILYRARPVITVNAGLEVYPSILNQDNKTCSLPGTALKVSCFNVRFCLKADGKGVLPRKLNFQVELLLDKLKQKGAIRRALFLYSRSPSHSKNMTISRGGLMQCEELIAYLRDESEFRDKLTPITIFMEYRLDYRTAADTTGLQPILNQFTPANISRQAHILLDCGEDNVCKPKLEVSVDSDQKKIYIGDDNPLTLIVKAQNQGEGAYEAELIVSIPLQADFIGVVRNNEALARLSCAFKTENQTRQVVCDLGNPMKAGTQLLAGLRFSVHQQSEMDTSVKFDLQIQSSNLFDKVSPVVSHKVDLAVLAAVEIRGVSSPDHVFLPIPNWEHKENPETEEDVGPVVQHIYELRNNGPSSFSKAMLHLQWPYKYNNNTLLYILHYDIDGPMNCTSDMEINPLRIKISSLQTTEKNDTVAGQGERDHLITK
Chain of αv/βIII receptor (P06756 891-1048 partner limits assumed): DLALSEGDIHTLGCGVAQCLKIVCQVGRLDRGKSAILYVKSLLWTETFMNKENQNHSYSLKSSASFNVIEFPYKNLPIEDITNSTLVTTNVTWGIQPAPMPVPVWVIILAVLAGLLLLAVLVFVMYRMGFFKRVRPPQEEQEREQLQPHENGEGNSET
Chain of αv/βIII receptor (P05106 27-788): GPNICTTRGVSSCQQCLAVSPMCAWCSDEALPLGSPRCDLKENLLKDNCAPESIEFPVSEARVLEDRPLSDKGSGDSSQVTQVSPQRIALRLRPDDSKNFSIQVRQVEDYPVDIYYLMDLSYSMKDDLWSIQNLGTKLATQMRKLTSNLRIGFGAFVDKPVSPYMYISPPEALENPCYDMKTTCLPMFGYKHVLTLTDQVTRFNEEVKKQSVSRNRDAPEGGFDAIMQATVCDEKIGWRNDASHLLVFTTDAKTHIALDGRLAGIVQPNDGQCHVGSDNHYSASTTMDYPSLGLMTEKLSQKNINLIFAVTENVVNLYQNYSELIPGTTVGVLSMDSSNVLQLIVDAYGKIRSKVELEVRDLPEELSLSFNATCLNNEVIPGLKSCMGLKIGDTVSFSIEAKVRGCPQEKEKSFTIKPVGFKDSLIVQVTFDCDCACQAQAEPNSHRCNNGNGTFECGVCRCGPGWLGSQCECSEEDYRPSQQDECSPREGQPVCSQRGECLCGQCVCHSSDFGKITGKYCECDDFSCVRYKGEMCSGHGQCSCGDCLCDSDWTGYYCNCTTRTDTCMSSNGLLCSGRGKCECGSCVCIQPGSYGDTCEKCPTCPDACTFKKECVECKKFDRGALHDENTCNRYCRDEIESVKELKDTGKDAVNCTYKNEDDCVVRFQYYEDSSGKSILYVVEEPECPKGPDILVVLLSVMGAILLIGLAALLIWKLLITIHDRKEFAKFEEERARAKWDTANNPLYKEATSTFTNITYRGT

T1 sequence (P06756 31-889 limits assumed): as the sequence (P06756 31-889 limits assumed) above
T1 sequence (P06756 891-1048 partner limits assumed): as the sequence (P06756 891-1048 partner limits assumed) above
T1 sequence (P05106 27-788): as the sequence (P05106 27-788) above

As usually defined, the Kd is the concentration at which binding is half-saturated. As to `O=C(O)CC(NC(=O)CNC(=O)CCCc1ccc2c(n1)NCCC2)C(=O)O` (stereo not drawn) [Feuston 5], the “output sequences identifying the exact ligand” value in assay [1] is 16 out of 18. Moreover, the “affinity for αv/βIII compared to the RGD-tripeptide” value at αv/βIII receptor was “ten-fold increased affinity”. Further, on αv/βIII receptor (αv/βIII), the Kd is 111 nM.

Values taken from US8206901B2, “Method for the synthesis of a bifunctional complex” (Nuevolution A/S, priority 2002, dated 2012).
